In patent US20250127162A1, “METHODS AND COMPOSITIONS FOR CONTROLLING PESTS IN RICE” (Globachem NV, priority 2022, published 2025):

Assays:
[1] = tested on: Oryzaphagus oryzae; assay: Rice field trials, number of Oryzaphagus oryzae (Example 2, Trials 1-2, Brazil); assay type: in vivo; conditions: 3 days after application; for Number of Oryzaphagus oryzae, Average: average of 4 repetitions; for Number of Oryzaphagus oryzae, Repetition A / Number of Oryzaphagus oryzae, Repetition B / Number of Oryzaphagus oryzae, Repetition C / Number of Oryzaphagus oryzae, Repetition D: one application
Experimental: (§1) All applications were made with an EC formulation containing 650 g/L of pelargonic acid (e.g., 685 g/L of 95% purity pelargonic acid), an anionic emulsifier and a branched fatty acid ester solvent.
Trials 1-2 assessing the use of pelargonic acid for controlling Oryzaphagus oryzae in rice were conducted in Brazil. One application was made 5 days after the first flood irrigation. Assessments of the number of Oryzaphagus oryzae were made three (3) days after application for each of the four (4) repetitions at each dose rate.

[2] = tested on: Diabrotica speciosa; assay: Potato field trials, control of Diabrotica speciosa (Example 3); assay type: in vivo; conditions: 400 L water/ha, two applications 7 d apart, Actara 0.05 kg/ha
Excerpt: as §1, with “solvent. […]. […] Potatoes—Diabrotica speciosa (Cucurbit beetle)-DIABSC [table] [table]” for “solvent.”

[3] = Trial 1, listed as PA 487.5 g/ha
[4] = Trial 1, listed as PA 1300 g/ha
[5] = Trial 2, listed as PA 487.5 g/ha
[6] = Trial 2, listed as PA 1300 g/ha

CCCCCCCCC(=O)O [PA 650 g/ha, pelargonic acid]
E % ([1]; Trial 1): 90%
Number of Oryzaphagus oryzae, Average ([1]; Trial 1): 0.25 b
Number of Oryzaphagus oryzae, Average [1, 3]: 0.5 b
Number of Oryzaphagus oryzae, Average ([1]; Trial 1, listed as PA 975 g/ha): 0.25 b
Number of Oryzaphagus oryzae, Average [1, 4]: 0 b
E % [1, 3]: 80%
E % ([1]; Trial 1, listed as PA 975 g/ha): 90%
E % [1, 4]: 100%
Number of Oryzaphagus oryzae, Repetition A ([1]; Trial 1): 1
Number of Oryzaphagus oryzae, Repetition B ([1]; Trial 1): 0
Number of Oryzaphagus oryzae, Repetition C ([1]; Trial 1): 0
Number of Oryzaphagus oryzae, Repetition D ([1]; Trial 1): 0
Number of Oryzaphagus oryzae, Repetition A [1, 3]: 0
Number of Oryzaphagus oryzae, Repetition B [1, 3]: 1
Number of Oryzaphagus oryzae, Repetition C [1, 3]: 1
Number of Oryzaphagus oryzae, Repetition D [1, 3]: 0
Number of Oryzaphagus oryzae, Repetition A ([1]; Trial 1, listed as PA 975 g/ha): 0
Number of Oryzaphagus oryzae, Repetition B ([1]; Trial 1, listed as PA 975 g/ha): 0
Number of Oryzaphagus oryzae, Repetition C ([1]; Trial 1, listed as PA 975 g/ha): 0
Number of Oryzaphagus oryzae, Repetition D ([1]; Trial 1, listed as PA 975 g/ha): 1
Number of Oryzaphagus oryzae, Repetition A [1, 4]: 0
Number of Oryzaphagus oryzae, Repetition B [1, 4]: 0
Number of Oryzaphagus oryzae, Repetition C [1, 4]: 0
Number of Oryzaphagus oryzae, Repetition D [1, 4]: 0
E % ([1]; Trial 2): 77.78%
Number of Oryzaphagus oryzae, Average ([1]; Trial 2): 0.5 ab
Number of Oryzaphagus oryzae, Average [1, 5]: 0.75 ab
Number of Oryzaphagus oryzae, Average ([1]; Trial 2, listed as PA 975 g/ha): 0.25 b
Number of Oryzaphagus oryzae, Average [1, 6]: 0 b
E % [1, 5]: 66.67%
E % ([1]; Trial 2, listed as PA 975 g/ha): 88.89%
E % [1, 6]: 100%
Number of Oryzaphagus oryzae, Repetition A ([1]; Trial 2): 1
Number of Oryzaphagus oryzae, Repetition B ([1]; Trial 2): 0
Number of Oryzaphagus oryzae, Repetition C ([1]; Trial 2): 0
Number of Oryzaphagus oryzae, Repetition D ([1]; Trial 2): 1
Number of Oryzaphagus oryzae, Repetition A [1, 5]: 0
Number of Oryzaphagus oryzae, Repetition B [1, 5]: 1
Number of Oryzaphagus oryzae, Repetition C [1, 5]: 2
Number of Oryzaphagus oryzae, Repetition D [1, 5]: 0
Number of Oryzaphagus oryzae, Repetition A ([1]; Trial 2, listed as PA 975 g/ha): 1
Number of Oryzaphagus oryzae, Repetition B ([1]; Trial 2, listed as PA 975 g/ha): 0
Number of Oryzaphagus oryzae, Repetition C ([1]; Trial 2, listed as PA 975 g/ha): 0
Number of Oryzaphagus oryzae, Repetition D ([1]; Trial 2, listed as PA 975 g/ha): 0
Number of Oryzaphagus oryzae, Repetition A [1, 6]: 0
Number of Oryzaphagus oryzae, Repetition B [1, 6]: 0
Number of Oryzaphagus oryzae, Repetition C [1, 6]: 0
Number of Oryzaphagus oryzae, Repetition D [1, 6]: 0
# Insects, % UNCK ([2]; Trial 1, potato, 3 DAA): 67.74b % UNCK
# Insects, % UNCK ([2]; Trial 1, potato, 3 DAA, listed as PA 487.5 g/ha): 48.39ab % UNCK
# Insects, % UNCK ([2]; Trial 1, potato, 3 DAA, listed as PA 812.5 g/ha): 64.52b % UNCK
# Insects, % UNCK ([2]; Trial 1, potato, 3 DAA, listed as PA 975 g/ha): 74.19b % UNCK
# Insects, % UNCK ([2]; Trial 1, potato, 3 DAB): 84.21c % UNCK
# Insects, % UNCK ([2]; Trial 1, potato, 3 DAB, listed as PA 487.5 g/ha): 34.2b1 % UNCK
# Insects, % UNCK ([2]; Trial 1, potato, 3 DAB, listed as PA 812.5 g/ha): 86.84c % UNCK
# Insects, % UNCK ([2]; Trial 1, potato, 3 DAB, listed as PA 975 g/ha): 84.21c % UNCK
# Insects, % UNCK ([2]; Trial 1, potato, 7 DAA): 55.88abc % UNCK
# Insects, % UNCK ([2]; Trial 1, potato, 7 DAA, listed as PA 487.5 g/ha): 29.4ab % UNCK
# Insects, % UNCK ([2]; Trial 1, potato, 7 DAA, listed as PA 812.5 g/ha): 61.76bc % UNCK
# Insects, % UNCK ([2]; Trial 1, potato, 7 DAA, listed as PA 975 g/ha): 64.71bc % UNCK
# Insects, % UNCK ([2]; Trial 1, potato, 7 DAB): 81.08b % UNCK
# Insects, % UNCK ([2]; Trial 1, potato, 7 DAB, listed as PA 487.5 g/ha): 54.05b % UNCK
# Insects, % UNCK ([2]; Trial 1, potato, 7 DAB, listed as PA 812.5 g/ha): 83.78b % UNCK
# Insects, % UNCK ([2]; Trial 1, potato, 7 DAB, listed as PA 975 g/ha): 83.78b % UNCK
# Insects, % UNCK ([2]; Trial 2, potato, 3 DAA): 61.90bc % UNCK
# Insects, % UNCK ([2]; Trial 2, potato, 3 DAA, listed as PA 487.5 g/ha): 38.10b % UNCK
# Insects, % UNCK ([2]; Trial 2, potato, 3 DAA, listed as PA 812.5 g/ha): 80.95cd % UNCK
# Insects, % UNCK ([2]; Trial 2, potato, 3 DAA, listed as PA 975 g/ha): 95.24de % UNCK
# Insects, % UNCK ([2]; Trial 2, potato, 3 DAB): 25.00ab % UNCK
# Insects, % UNCK ([2]; Trial 2, potato, 3 DAB, listed as PA 487.5 g/ha): 25.00ab % UNCK
# Insects, % UNCK ([2]; Trial 2, potato, 3 DAB, listed as PA 812.5 g/ha): 28.57b % UNCK
# Insects, % UNCK ([2]; Trial 2, potato, 3 DAB, listed as PA 975 g/ha): 53.57c % UNCK
# Insects, % UNCK ([2]; Trial 2, potato, 7 DAA): 38.10b % UNCK
# Insects, % UNCK ([2]; Trial 2, potato, 7 DAA, listed as PA 487.5 g/ha): 23.81ab % UNCK
# Insects, % UNCK ([2]; Trial 2, potato, 7 DAA, listed as PA 812.5 g/ha): 85.71c % UNCK
# Insects, % UNCK ([2]; Trial 2, potato, 7 DAA, listed as PA 975 g/ha): 100.00d % UNCK
# Insects, % UNCK ([2]; Trial 2, potato, 7 DAB): 87.50bc % UNCK
# Insects, % UNCK ([2]; Trial 2, potato, 7 DAB, listed as PA 487.5 g/ha): 70.83b % UNCK
# Insects, % UNCK ([2]; Trial 2, potato, 7 DAB, listed as PA 812.5 g/ha): 91.67c % UNCK
# Insects, % UNCK ([2]; Trial 2, potato, 7 DAB, listed as PA 975 g/ha): 100.00c % UNCK
# Insects, % UNCK ([2]; Trial 2, potato, 10 DAB): 86.96bc % UNCK
# Insects, % UNCK ([2]; Trial 2, potato, 10 DAB, listed as PA 487.5 g/ha): 68.57b % UNCK
# Insects, % UNCK ([2]; Trial 2, potato, 10 DAB, listed as PA 812.5 g/ha): 91.30c % UNCK
# Insects, % UNCK ([2]; Trial 2, potato, 10 DAB, listed as PA 975 g/ha): 100.00c % UNCK
